This passage reports MIC and CC50 results from ChEMBL document CHEMBL4393656, “Cationic biaryl 1,2,3-triazolyl peptidomimetic amphiphiles targeting Clostridioides (Clostridium) difficile: Synthesis, antibacterial evaluation and an in vivo C. difficile infection model” (Eur J Med Chem, 2019).

In one series the test system is Pseudomonas aeruginosa. Put plainly: Growth inhibition of Pseudomonas aeruginosa ATCC 27853 incubated for 18 hrs. In kind it is organism-based.
In the next series the test system is Enterococcus faecalis. Put plainly: Growth inhibition of Enterococcus faecalis ATCC 29212 incubated in MHB broth for 24 hrs. In kind it is organism-based.
Series [1] deals with Clostridioides difficile. Put plainly: Antibacterial activity against Clostridium difficile NSW132 RT027 incubated for 2 to 4 hrs in pre-reduced brucella broth supplemented with haemin/vitamin K and further incubation in anaerobic condition for 48 hrs. The series is classed as functional.
Series [2] has as its system Clostridioides difficile. Put plainly: Antibacterial activity against Clostridium difficile ATCC 700057 incubated for 2 to 4 hrs in pre-reduced brucella broth supplemented with haemin/vitamin K and further incubation in anaerobic condition for 48 hrs. In kind it is functional.
Series [3] deals with Staphylococcus aureus. Put plainly: Growth inhibition of methicillin-resistant Staphylococcus aureus ATCC 43300 incubated for 18 hrs. In kind it is organism-based.
The subject of another series is Klebsiella pneumoniae. Put plainly: Growth inhibition of Klebsiella pneumoniae ATCC 700603 incubated for 18 hrs. In kind it is organism-based.
The subject of a further series is Acinetobacter baumannii. Put plainly: Growth inhibition of Acinetobacter baumannii ATCC 19606 incubated for 18 hrs without shaking by absorbance based monochromator plate reader analysis. The series is classed as organism-based, ATCC 19606 = CIP 70.34 = JCM 6841. Particulars: in vitro.
In series [4] the test system is Staphylococcus aureus. Put plainly: Growth inhibition of Staphylococcus aureus ATCC 29213 incubated in MHB broth for 24 hrs. The series is classed as organism-based.
Series [5] can be described thus: Cytotoxicity against HEK293 cells assessed as decrease in cell viability after 20 hrs by resazurin dye-based fluorescence assay. Particulars: human. For orientation: The colour change of resazurin is a common sign of viable cells or microbes.
The test system of another series is Streptococcus pneumoniae. Put plainly: Growth inhibition of Streptococcus pneumoniae ATCC 49619 incubated in MHB medium with lysed horse blood and 5% CO2 for 24 hrs. In kind it is organism-based.
In the next series the test system is Escherichia coli. Put plainly: Growth inhibition of Escherichia coli ATCC 25922 incubated for 18 hrs. In kind it is organism-based.

On to `CC(C)CCOc1ccccc1-c1ccccc1OCc1cn([C@H](CCCCN)C(=O)NC2CCCCC2)nn1.Cl`, for which the MIC is 32 µg/mL against Pseudomonas aeruginosa; 16 µg/mL in the series on Enterococcus faecalis; 32 µg/mL against Clostridioides difficile [1]; 16 µg/mL in the series on Clostridioides difficile [2]; 8 µg/mL against Staphylococcus aureus [3]; greater than 32 µg/mL against Klebsiella pneumoniae. For the same compound, the MIC in the series with Acinetobacter baumannii is 32 µg/mL; against Staphylococcus aureus [4], 8 µg/mL; against Streptococcus pneumoniae, 8 µg/mL; against Escherichia coli, greater than 32 µg/mL. Moreover, the CC50 at 20 h in series [5] was greater than 32 µg/mL.

In the case of `CC(C)CCOc1ccccc1-c1ccccc1OCc1cn([C@H](CCCNC(=N)N)C(=O)NCCc2ccccc2)nn1.Cl`, the MIC in the series with Pseudomonas aeruginosa was greater than 32 µg/mL; against Enterococcus faecalis, 4 µg/mL; against Clostridioides difficile [1], 32 µg/mL; in the series on Clostridioides difficile [2], 8 µg/mL; in the series on Staphylococcus aureus [3], 8 µg/mL; against Klebsiella pneumoniae, greater than 32 µg/mL. For the same compound, the MIC against Acinetobacter baumannii was 32 µg/mL; with Staphylococcus aureus [4] it was 2 µg/mL; in the series with Streptococcus pneumoniae, 4 µg/mL; in the series on Escherichia coli it was greater than 32 µg/mL. Also, the CC50 at 20 h in series [5] was determined as 17.9 µg/mL.

Turning to `CC(C)CCOc1ccccc1-c1ccccc1OCc1cn([C@H](CCCCN)C(=O)NCc2ccc(C(F)(F)F)cc2)nn1.Cl`, the MIC was greater than 32 µg/mL in the series on Pseudomonas aeruginosa; 4 µg/mL against Enterococcus faecalis; 32 µg/mL in the series with Clostridioides difficile [1]; 32 µg/mL against Clostridioides difficile [2]; 8 µg/mL in the series with Staphylococcus aureus [3]; greater than 32 µg/mL in the series on Klebsiella pneumoniae. The MIC was 32 µg/mL against Acinetobacter baumannii, 4 µg/mL against Staphylococcus aureus [4], 8 µg/mL in the series on Streptococcus pneumoniae and greater than 32 µg/mL in the series with Escherichia coli. The CC50 at 20 h in series [5] was greater than 32 µg/mL.

Regarding COLISTIN, the MIC in the series with Pseudomonas aeruginosa was determined as 0.25 µg/mL; against Klebsiella pneumoniae, 0.25 µg/mL; against Acinetobacter baumannii, 0.25 µg/mL; in the series on Escherichia coli, 0.125 µg/mL.

For `CC(C)CCOc1ccccc1-c1ccccc1OCc1cn([C@H](CCCNC(=N)N)C(=O)NCCc2ccc(F)cc2)nn1.Cl`, the MIC against Pseudomonas aeruginosa is greater than 32 µg/mL; against Enterococcus faecalis it was 4 µg/mL; in the series with Clostridioides difficile [1], 64 µg/mL; against Clostridioides difficile [2] it was 64 µg/mL; in the series on Staphylococcus aureus [3], 16 µg/mL; in the series with Klebsiella pneumoniae, greater than 32 µg/mL. Further, the MIC with Acinetobacter baumannii was greater than 32 µg/mL; with Staphylococcus aureus [4], 4 µg/mL; in the series with Streptococcus pneumoniae it was 4 µg/mL; against Escherichia coli it was greater than 32 µg/mL. Moreover, the CC50 at 20 h in series [5] was 19.1 µg/mL.

As to `CC(C)CCOc1ccccc1-c1ccccc1OCc1cn([C@H](CCCNC(=N)N)C(=O)N[C@H](CCCCN)Cn2cc(Cc3ccccc3)nn2)nn1.Cl.Cl`, the MIC in the series with Pseudomonas aeruginosa was found to be 16 µg/mL; in the series with Enterococcus faecalis it was 8 µg/mL; in the series with Clostridioides difficile [1] it was 16 µg/mL; against Clostridioides difficile [2], 32 µg/mL; in the series with Staphylococcus aureus [3], 8 µg/mL; in the series with Klebsiella pneumoniae, 32 µg/mL. The MIC against Acinetobacter baumannii was 32 µg/mL; in the series with Staphylococcus aureus [4], 8 µg/mL; in the series on Streptococcus pneumoniae, 4 µg/mL; against Escherichia coli, greater than 32 µg/mL. In addition, in [5], the CC50 at 20 h is greater than 32 µg/mL.

For the compound `CC(C)CCOc1ccccc1-c1ccccc1OCc1cn([C@H](CCCNC(=N)N)C(=O)NC2CC2)nn1.Cl`, the MIC was greater than 32 µg/mL against Pseudomonas aeruginosa; 32 µg/mL with Enterococcus faecalis; 128 µg/mL with Clostridioides difficile [1]; 64 µg/mL in the series with Clostridioides difficile [2]; greater than 32 µg/mL in the series with Klebsiella pneumoniae; greater than 32 µg/mL in the series with Acinetobacter baumannii. Further, the MIC in the series with Staphylococcus aureus [4] was 16 µg/mL; in the series on Streptococcus pneumoniae, 8 µg/mL; in the series on Escherichia coli it was greater than 32 µg/mL. The CC50 at 20 h in series [5] is 20 µg/mL.

As for `CC(C)CCOc1ccc2ccccc2c1-c1c(OCC(=O)N[C@H](CCCNC(=N)N)C(=O)NCCc2ccc(F)cc2)ccc2ccccc12.Cl`, the MIC is greater than 32 µg/mL against Pseudomonas aeruginosa; greater than 128 µg/mL with Enterococcus faecalis; 64 µg/mL in the series with Clostridioides difficile [1]; greater than 128 µg/mL against Clostridioides difficile [2]; 4 µg/mL in the series on Staphylococcus aureus [3]; greater than 32 µg/mL with Klebsiella pneumoniae. Further, the MIC against Acinetobacter baumannii is greater than 32 µg/mL; in the series with Staphylococcus aureus [4], greater than 128 µg/mL; with Streptococcus pneumoniae, greater than 128 µg/mL; against Escherichia coli, greater than 32 µg/mL. Also, in series [5], the CC50 at 20 h is greater than 32 µg/mL.

Regarding `CC(C)CCOc1ccc2ccccc2c1-c1c(OCc2cn([C@H](CCCCN)C(=O)N[C@H](CCCNC(=N)N)C(=O)N3CCCCC3)nn2)ccc2ccccc12.Cl.Cl`, the MIC in the series on Pseudomonas aeruginosa is 16 µg/mL; with Enterococcus faecalis, 8 µg/mL; in the series with Clostridioides difficile [1], 32 µg/mL; in the series on Clostridioides difficile [2] it was 16 µg/mL; in the series on Staphylococcus aureus [3], 2 µg/mL; with Klebsiella pneumoniae, 16 µg/mL. Also, the MIC with Acinetobacter baumannii is 8 µg/mL; against Staphylococcus aureus [4], 8 µg/mL; in the series with Streptococcus pneumoniae, 8 µg/mL; against Escherichia coli, 32 µg/mL. The CC50 at 20 h in series [5] worked out at 16.8 µg/mL.

Regarding `CC(C)CCOc1ccccc1-c1ccccc1OCc1cn([C@H](CCCNC(=N)N)C(=O)N[C@H](CCCCN)Cn2cc(C3CCCCC3)nn2)nn1.Cl.Cl`, the MIC against Pseudomonas aeruginosa stood at 8 µg/mL; in the series with Enterococcus faecalis, 8 µg/mL; against Clostridioides difficile [1] it was 16 µg/mL; in the series with Clostridioides difficile [2] it was 8 µg/mL; against Staphylococcus aureus [3], 4 µg/mL; with Klebsiella pneumoniae, 16 µg/mL. Further, the MIC in the series with Acinetobacter baumannii amounted to 16 µg/mL; with Staphylococcus aureus [4], 8 µg/mL; in the series on Streptococcus pneumoniae, 2 µg/mL; in the series on Escherichia coli, 16 µg/mL. The CC50 at 20 h in series [5] was greater than 32 µg/mL.

Take `CC(C)CCOc1ccccc1-c1ccccc1OCc1cn([C@H](CCCCN)C(=O)NCc2ccccc2)nn1.Cl`: the MIC was 32 µg/mL in the series on Pseudomonas aeruginosa; 16 µg/mL against Enterococcus faecalis; 32 µg/mL with Clostridioides difficile [1]; 32 µg/mL in the series with Clostridioides difficile [2]; greater than 32 µg/mL in the series on Klebsiella pneumoniae; 32 µg/mL against Acinetobacter baumannii. In addition, the MIC in the series on Staphylococcus aureus [4] is 8 µg/mL; in the series with Streptococcus pneumoniae, 8 µg/mL; with Escherichia coli, greater than 32 µg/mL. Also, in series [5], the 50% cytotoxic concentration (CC50) at 20 h is greater than 32 µg/mL.

Consider `CC(C)CCOc1ccccc1-c1ccccc1OCc1cn([C@H](CCCCN)C(=O)N[C@H](CCCNC(=N)N)Cn2cc(CC3CCCCC3)nn2)nn1.Cl.Cl`, for which the MIC with Pseudomonas aeruginosa turned out to be 32 µg/mL; against Enterococcus faecalis it was 4 µg/mL; in the series on Clostridioides difficile [1] it was 16 µg/mL; against Clostridioides difficile [2], 16 µg/mL; against Staphylococcus aureus [3], 2 µg/mL; with Klebsiella pneumoniae, 16 µg/mL. The MIC against Acinetobacter baumannii came to 8 µg/mL; against Staphylococcus aureus [4], 4 µg/mL; in the series with Streptococcus pneumoniae, 8 µg/mL; in the series with Escherichia coli, 8 µg/mL. The CC50 at 20 h in series [5] worked out at 19.1 µg/mL.

As for `CC(C)CCOc1ccc2ccccc2c1-c1c(OCc2cn([C@H](CCCCN)C(=O)N[C@H](CCCNC(=N)N)C(=O)NCCc3ccccc3)nn2)ccc2ccccc12.Cl.Cl`, the MIC in the series on Pseudomonas aeruginosa was found to be 32 µg/mL; against Enterococcus faecalis it was 4 µg/mL; in the series on Clostridioides difficile [1], 32 µg/mL; in the series with Clostridioides difficile [2], 16 µg/mL; against Staphylococcus aureus [3], 2 µg/mL; in the series with Klebsiella pneumoniae, 16 µg/mL. Also, the MIC against Acinetobacter baumannii was 8 µg/mL; in the series on Staphylococcus aureus [4] it was 8 µg/mL; in the series with Streptococcus pneumoniae, 8 µg/mL; against Escherichia coli, greater than 32 µg/mL. Besides, the CC50 at 20 h in series [5] is 15.2 µg/mL.

For `CC(C)CCOc1ccc2ccccc2c1-c1c(OCc2cn([C@H](CCCCN)C(=O)N[C@H](CCCNC(=N)N)Cn3cc(CC4CCCCC4)nn3)nn2)ccc2ccccc12.Cl.Cl`, the MIC is 32 µg/mL in the series on Pseudomonas aeruginosa; 4 µg/mL against Enterococcus faecalis; 16 µg/mL in the series with Clostridioides difficile [1]; 16 µg/mL against Clostridioides difficile [2]; 2 µg/mL in the series with Staphylococcus aureus [3]; greater than 32 µg/mL against Klebsiella pneumoniae. For the same compound, the MIC against Acinetobacter baumannii is 8 µg/mL; with Staphylococcus aureus [4], 4 µg/mL; in the series with Streptococcus pneumoniae, 4 µg/mL; against Escherichia coli it was greater than 32 µg/mL. The CC50 at 20 h in series [5] is 16.6 µg/mL.

`CC(C)CCOc1ccccc1-c1ccccc1OCc1cn([C@H](CCCNC(=N)N)C(=O)NCc2cc(F)cc(F)c2)nn1.Cl`: the MIC in the series on Pseudomonas aeruginosa is greater than 32 µg/mL; with Enterococcus faecalis it was 8 µg/mL; against Clostridioides difficile [1], 32 µg/mL; against Clostridioides difficile [2] it was 32 µg/mL; in the series on Klebsiella pneumoniae, greater than 32 µg/mL; against Acinetobacter baumannii it was greater than 32 µg/mL. For the same compound, the MIC was 8 µg/mL in the series on Staphylococcus aureus [4], 16 µg/mL in the series with Streptococcus pneumoniae and greater than 32 µg/mL against Escherichia coli. The CC50 at 20 h in [5] was determined as 22.9 µg/mL.

For the compound `CC(C)CCOc1ccccc1-c1ccccc1OCc1cn([C@H](CCCNC(=N)N)C(=O)NCc2ccc(C(F)(F)F)cc2)nn1.Cl`, the MIC with Pseudomonas aeruginosa was greater than 32 µg/mL; with Enterococcus faecalis it was 16 µg/mL; against Clostridioides difficile [1], 128 µg/mL; with Clostridioides difficile [2], 128 µg/mL; with Klebsiella pneumoniae, greater than 32 µg/mL; in the series with Acinetobacter baumannii, greater than 32 µg/mL. Moreover, the MIC against Staphylococcus aureus [4] was 16 µg/mL; in the series with Streptococcus pneumoniae, 32 µg/mL; against Escherichia coli, greater than 32 µg/mL. Also, the CC50 at 20 h in series [5] is greater than 32 µg/mL.

What is called CC50 is the concentration giving 50% cytotoxicity.
